# The source made the active and inactive calls.
# Experiments:
# [1] = target: T1, Replicative DNA helicase DnaB (Mycobacterium tuberculosis, UniProt P9WMR3); experiment: DnaB intein splicing inhibitors, dose response, biochemical, cell-free fluorescence (AID 449749); type: functional
# T1 sequence (P9WMR3 whole entry): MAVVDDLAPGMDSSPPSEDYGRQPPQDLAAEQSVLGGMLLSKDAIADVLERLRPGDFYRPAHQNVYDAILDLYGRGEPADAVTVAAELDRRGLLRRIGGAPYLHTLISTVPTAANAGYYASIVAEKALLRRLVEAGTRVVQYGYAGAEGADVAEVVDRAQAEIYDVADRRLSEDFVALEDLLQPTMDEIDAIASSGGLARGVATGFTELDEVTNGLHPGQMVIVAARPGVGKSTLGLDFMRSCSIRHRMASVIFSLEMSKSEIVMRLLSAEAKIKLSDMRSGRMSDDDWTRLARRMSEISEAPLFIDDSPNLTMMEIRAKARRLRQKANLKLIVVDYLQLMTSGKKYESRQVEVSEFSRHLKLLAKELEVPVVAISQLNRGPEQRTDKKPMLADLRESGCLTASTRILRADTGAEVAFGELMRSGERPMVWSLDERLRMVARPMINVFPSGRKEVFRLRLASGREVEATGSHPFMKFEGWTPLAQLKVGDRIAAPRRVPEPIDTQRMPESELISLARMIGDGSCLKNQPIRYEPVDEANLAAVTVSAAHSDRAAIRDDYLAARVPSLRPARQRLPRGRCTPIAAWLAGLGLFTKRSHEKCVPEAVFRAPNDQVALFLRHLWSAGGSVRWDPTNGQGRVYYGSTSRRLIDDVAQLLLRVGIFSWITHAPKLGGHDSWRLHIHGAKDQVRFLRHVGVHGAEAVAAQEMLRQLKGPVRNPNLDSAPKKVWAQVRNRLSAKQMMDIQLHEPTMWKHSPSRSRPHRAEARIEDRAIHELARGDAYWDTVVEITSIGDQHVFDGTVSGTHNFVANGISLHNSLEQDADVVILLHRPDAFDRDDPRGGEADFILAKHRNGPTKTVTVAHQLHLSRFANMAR
# Protein RecA = target: T2, Protein RecA (Mycobacterium tuberculosis, UniProt P9WHJ3); experiment: Fluorescence Cell-Free Homogeneous Dose Retest to Identify Inhibitors of RecA-Intein Splicing Activity. [Related pubchem assays (depositor defined):AID2097, AID2223, AID489010, AID492950]; type: functional
# T2 sequence (P9WHJ3 whole entry): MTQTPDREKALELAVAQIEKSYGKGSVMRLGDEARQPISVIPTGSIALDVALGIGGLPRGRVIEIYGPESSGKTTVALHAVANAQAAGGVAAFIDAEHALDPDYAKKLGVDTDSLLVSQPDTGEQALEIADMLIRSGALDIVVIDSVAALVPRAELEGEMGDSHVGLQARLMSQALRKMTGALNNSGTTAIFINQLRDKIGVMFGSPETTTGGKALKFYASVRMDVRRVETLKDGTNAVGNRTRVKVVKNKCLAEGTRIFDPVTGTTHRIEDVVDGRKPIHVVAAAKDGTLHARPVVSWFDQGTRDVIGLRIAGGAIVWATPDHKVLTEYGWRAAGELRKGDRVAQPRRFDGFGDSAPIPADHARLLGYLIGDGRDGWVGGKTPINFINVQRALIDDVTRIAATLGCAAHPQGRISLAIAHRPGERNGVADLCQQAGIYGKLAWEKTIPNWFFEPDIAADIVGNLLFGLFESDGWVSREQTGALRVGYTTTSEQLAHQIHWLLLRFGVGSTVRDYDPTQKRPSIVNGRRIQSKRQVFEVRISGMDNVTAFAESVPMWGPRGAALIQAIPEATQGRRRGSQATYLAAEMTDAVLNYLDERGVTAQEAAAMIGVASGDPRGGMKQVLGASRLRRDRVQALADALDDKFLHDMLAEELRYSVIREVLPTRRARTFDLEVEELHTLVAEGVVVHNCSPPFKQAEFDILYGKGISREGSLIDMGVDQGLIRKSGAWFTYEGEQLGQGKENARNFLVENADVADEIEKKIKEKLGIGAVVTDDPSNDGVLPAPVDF
# Cytochrome P450 1A2 = target: T3, Cytochrome P450 1A2 (Homo sapiens, UniProt P05177);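 also: PubChem cytochrome P450 panel assay, CYP1A2 panel member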
# T3 sequence (P05177 whole entry): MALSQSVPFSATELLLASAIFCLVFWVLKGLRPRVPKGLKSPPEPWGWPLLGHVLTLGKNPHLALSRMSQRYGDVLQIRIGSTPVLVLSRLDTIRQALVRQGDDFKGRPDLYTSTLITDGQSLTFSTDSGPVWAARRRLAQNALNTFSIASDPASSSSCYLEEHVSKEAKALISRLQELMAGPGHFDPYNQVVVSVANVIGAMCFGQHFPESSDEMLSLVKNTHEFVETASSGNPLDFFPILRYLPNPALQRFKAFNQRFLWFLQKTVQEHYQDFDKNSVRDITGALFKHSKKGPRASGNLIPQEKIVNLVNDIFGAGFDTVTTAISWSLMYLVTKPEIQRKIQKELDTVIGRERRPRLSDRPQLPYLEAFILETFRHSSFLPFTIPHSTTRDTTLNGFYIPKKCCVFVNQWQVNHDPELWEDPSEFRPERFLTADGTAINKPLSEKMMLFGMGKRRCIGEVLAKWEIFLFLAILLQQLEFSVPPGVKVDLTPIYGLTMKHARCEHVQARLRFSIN
# Cytochrome P450 2D6 = Cytochrome P450 2D6 (Homo sapiens, UniProt P10635);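 also: CYP2D6 member of a cytochrome P450 panel assay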
# Cytochrome P450 2C19 = Cytochrome P450 2C19 (Homo sapiens, UniProt P33261); experiment: Cytochrome panel assay with activity outcomes. Panel member name: p450-cyp2c19 Compounds with AC50 equal or less than 10 uM are considered active; type: functional; details: read-out: AC50
# Cytochrome P450 3A4 = Cytochrome P450 3A4 (Homo sapiens, UniProt P08684);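 also: CYP3A4 tested as one member of a cytochrome P450 panel screen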
# Cytochrome P450 2C9 = Cytochrome P450 2C9 (Homo sapiens, UniProt P11712)
# [2] = Luminescence Cell-Based Dose Response HTS to Identify Activators of Luciferase Translation or Activity in H4 […] Cells. [Related pubchem assays: 1829 (Project Summary), 1814 (Primary HTS)]; type: functional
# H4 = experiment: Luminescence Cell-Based Dose Response HTS to Identify Activators of 5'UTR Stem-Loop Driven Prion Protein mRNA Translation in H4 Neuroglioblastoma Cells. [Related pubchem assays: 1829 (Project Summary), 1814 (Primary HTS)]; type: functional; details: Homo sapiens
# [3] = test system: Streptococcus sp. 'group A'; experiment: Streptococcus pyogenes SK(-)GAS viability under kanamycin – luminescence, BacTiterGlo, confirmation, counter-screen for streptokinase expression inhibitor project, dose response (AID 1900); type: functional, organism-based
# Streptococcus = experiment: GAS UMAA2166 growth inhibition – luminescence, BacTiterGlo, counter-screen for streptokinase expression inhibitor project, dose response (AID 1915); type: functional, organism-based;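 also: potency for reduction of bacterial viability or growth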
# [4] = NIH-3T3 fibroblast cytotoxicity, dose response, cytotoxicity control, cell-based, fluorescence, Alamar Blue, secondary assay (AID 2327); type: functional;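 also: NIH-3T3 mouse fibroblasts cultured with fluconazole at 8 µg/mL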
# Sequence of Cytochrome P450 2D6 (P10635 whole entry): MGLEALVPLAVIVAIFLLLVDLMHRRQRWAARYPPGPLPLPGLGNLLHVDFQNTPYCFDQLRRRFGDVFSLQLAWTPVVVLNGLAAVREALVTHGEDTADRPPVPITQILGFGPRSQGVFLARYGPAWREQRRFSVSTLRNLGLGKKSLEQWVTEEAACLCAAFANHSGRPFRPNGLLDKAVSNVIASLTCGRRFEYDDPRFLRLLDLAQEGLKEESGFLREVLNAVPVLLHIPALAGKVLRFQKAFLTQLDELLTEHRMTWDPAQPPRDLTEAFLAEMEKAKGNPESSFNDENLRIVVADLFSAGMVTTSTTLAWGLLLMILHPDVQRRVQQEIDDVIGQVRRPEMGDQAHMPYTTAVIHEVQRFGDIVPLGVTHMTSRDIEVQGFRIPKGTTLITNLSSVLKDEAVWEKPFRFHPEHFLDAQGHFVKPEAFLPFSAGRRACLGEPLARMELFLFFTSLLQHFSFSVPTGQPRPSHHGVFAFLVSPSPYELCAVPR
# Sequence of Cytochrome P450 2C9 (P11712 whole entry): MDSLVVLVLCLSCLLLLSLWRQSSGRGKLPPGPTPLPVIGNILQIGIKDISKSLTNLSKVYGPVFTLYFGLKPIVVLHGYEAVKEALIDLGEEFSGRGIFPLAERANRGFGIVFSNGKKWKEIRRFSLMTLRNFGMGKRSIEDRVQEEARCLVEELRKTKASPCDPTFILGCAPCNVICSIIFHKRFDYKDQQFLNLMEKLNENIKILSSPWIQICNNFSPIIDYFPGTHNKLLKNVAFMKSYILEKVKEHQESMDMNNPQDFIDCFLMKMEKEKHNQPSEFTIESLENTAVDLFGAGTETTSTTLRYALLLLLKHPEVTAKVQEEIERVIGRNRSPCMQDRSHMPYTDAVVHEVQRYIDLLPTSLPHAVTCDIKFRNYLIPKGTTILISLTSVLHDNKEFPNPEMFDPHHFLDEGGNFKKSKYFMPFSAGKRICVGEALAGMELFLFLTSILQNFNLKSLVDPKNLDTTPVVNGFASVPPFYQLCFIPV
# Sequence of Cytochrome P450 2C19 (P33261 whole entry): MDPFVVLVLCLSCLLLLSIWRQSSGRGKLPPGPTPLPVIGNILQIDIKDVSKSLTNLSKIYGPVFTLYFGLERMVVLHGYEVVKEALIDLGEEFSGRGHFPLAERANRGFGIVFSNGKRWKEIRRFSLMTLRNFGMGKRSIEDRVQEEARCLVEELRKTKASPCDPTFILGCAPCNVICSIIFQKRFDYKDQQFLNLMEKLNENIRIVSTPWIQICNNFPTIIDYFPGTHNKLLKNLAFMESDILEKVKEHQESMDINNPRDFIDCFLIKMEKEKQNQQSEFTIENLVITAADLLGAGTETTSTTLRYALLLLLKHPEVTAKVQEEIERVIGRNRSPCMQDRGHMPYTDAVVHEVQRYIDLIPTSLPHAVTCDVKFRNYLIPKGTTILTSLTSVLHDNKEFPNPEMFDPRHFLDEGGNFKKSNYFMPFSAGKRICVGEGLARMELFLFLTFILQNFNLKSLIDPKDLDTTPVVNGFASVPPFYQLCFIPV
# Sequence of Cytochrome P450 3A4 (P08684 whole entry): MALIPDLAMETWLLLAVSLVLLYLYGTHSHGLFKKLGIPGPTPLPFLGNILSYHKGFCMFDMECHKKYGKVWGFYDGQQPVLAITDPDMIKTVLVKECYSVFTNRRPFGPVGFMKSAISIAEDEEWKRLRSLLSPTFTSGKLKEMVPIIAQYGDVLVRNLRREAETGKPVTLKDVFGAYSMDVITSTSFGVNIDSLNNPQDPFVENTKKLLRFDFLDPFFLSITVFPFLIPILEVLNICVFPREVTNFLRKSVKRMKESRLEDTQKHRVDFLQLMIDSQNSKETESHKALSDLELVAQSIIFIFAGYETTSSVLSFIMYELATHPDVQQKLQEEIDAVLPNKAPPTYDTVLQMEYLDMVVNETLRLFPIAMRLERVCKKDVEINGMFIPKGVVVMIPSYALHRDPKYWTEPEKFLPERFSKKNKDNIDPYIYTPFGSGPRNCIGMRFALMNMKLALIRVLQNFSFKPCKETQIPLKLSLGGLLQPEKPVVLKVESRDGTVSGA
compound,measurement,setting,value
O=C1CC/[N+](=C\c2ccccc2Cl)[N-]1,AC50,[1],7.23 µM (active)
same,EC50,Protein RecA,4.02 µM (active)
CCCCSc1nc(C)cc(N=C(S)Nc2ccc(OC)cc2)n1,AC50,Cytochrome P450 1A2,4.47 µM (inconclusive)
CCCC(=O)Nc1c2c(nn1-c1ccc(C)cc1C)CSC2,AC50,Cytochrome P450 2D6,28.2 µM (inconclusive)
same,AC50,Cytochrome P450 1A2,12.6 µM (inconclusive)
O=C(c1cnc(N2CCN(c3ncccn3)CC2)c2ccccc12)N1CCN(c2ccccn2)CC1,AC50,Cytochrome P450 1A2,0.0251 µM (inconclusive)
O=S(=O)(c1ccccc1)N1CCC2(CC1)CN(c1ccccn1)C2,AC50,Cytochrome P450 2C19,10 µM (inconclusive)
same,AC50,Cytochrome P450 2D6,20 µM (inconclusive)
same,AC50,Cytochrome P450 3A4,12.6 µM (inconclusive)
c1ccc(N2CCC3(CCNCC3)CC2)nc1,AC50,Cytochrome P450 2C19,25.1 µM (inconclusive)
same,AC50,Cytochrome P450 3A4,25.1 µM (inconclusive)
same,AC50,Cytochrome P450 2C9,31.6 µM (inconclusive)
COC(=O)[C@H](Cc1ccccc1)NC(=O)N1CCN(Cc2ccccc2)CC1,AC50,Cytochrome P450 3A4,14.1 µM (inconclusive)
same,AC50,Cytochrome P450 2C9,0.01 µM (inconclusive)
Cc1cccc(Nc2ccccc2C(=O)OCC(=O)NCc2ccco2)c1C,AC50,Cytochrome P450 2C9,11.2 µM (inconclusive)
C[C@@H](C(=O)Nc1ccc2ccccc2c1)[C@@H]1C[C@@]1(C)[C@@H](NC(=O)Oc1ccc(F)cc1)c1ccccc1,AC50,Cytochrome P450 2C9,0.251 µM (inconclusive)
CCC(C)NC(=O)CCS(=O)(=O)c1ccc(Br)s1 (configuration not stated),AC50,Cytochrome P450 2D6,28.2 µM (inconclusive)
same,AC50,Cytochrome P450 2C9,12.6 µM (inconclusive)
CCc1ccc(OCC(=O)NC(=S)Nc2ccc(C)cc2C)c(Br)c1,AC50,Cytochrome P450 1A2,4.47 µM (inconclusive)
same,AC50,Cytochrome P450 3A4,31.6 µM (inconclusive)
same,AC50,Cytochrome P450 2C9,0.631 µM (inconclusive)
FC(F)(F)c1cc(-c2ccco2)nc(NCc2cccs2)n1,AC50,Cytochrome P450 2C19,1.26 µM (inconclusive)
same,AC50,Cytochrome P450 2D6,20 µM (inconclusive)
Cc1ccc(-n2c(C)c(C)c3c(NCCCO)ncnc32)cc1,EC50,[2],119 µM (active)
same,EC50,H4,> 120 µM (not active)
COc1ccc(C2=Nc3c(c(=O)n(C)c(=O)n3C)C(C(F)(F)F)(C(F)(F)F)N2)cc1,AC50,Cytochrome P450 1A2,11.2 µM (inconclusive)
same,AC50,Cytochrome P450 3A4,14.1 µM (inconclusive)
O=C(NCCOc1nc(N2CCOCC2)nc(N2CCOCC2)n1)Nc1ccccc1,AC50,Cytochrome P450 3A4,22.4 µM (inconclusive)
same,AC50,Cytochrome P450 2C9,15.8 µM (inconclusive)
CC(=O)NC1N=C(C)N(c2ccccc2)C1=O (configuration not stated),AC50,[1],4.66 µM (active)
same,EC50,Protein RecA,10.7 µM (active)
COc1ccc(C2C(C#N)=C(N)N(Nc3ccccc3)C3=C2C(=O)CC(C)(C)C3)cc1C (configuration not stated),AC50,Cytochrome P450 1A2,39.8 µM (inconclusive)
COC(=O)c1cc2c(ccn2-c2ccc(F)cc2)n1C(C)C,AC50,Cytochrome P450 3A4,25.1 µM (inconclusive)
same,AC50,Cytochrome P450 2C9,22.4 µM (inconclusive)
c1ccc(Nc2ncnc3ccc(-c4ccc5c(c4)OCO5)cc23)cc1,AC50,Cytochrome P450 2C9,1.58 µM (inconclusive)
CN(C)c1ncc2nc(-c3ccc(F)cc3)c(=O)n(CCC#N)c2n1,AC50,Cytochrome P450 2D6,0.501 µM (inconclusive)
same,AC50,Cytochrome P450 1A2,1.26 µM (inconclusive)
Cc1ccc(C)c(Nc2nc3nonc3nc2N2CCOCC2)c1,AC50,Cytochrome P450 2C9,0.355 µM (inconclusive)
CN1CCN(c2ncnc3ccc(-c4cccc(NS(C)(=O)=O)c4)cc23)CC1,AC50,Cytochrome P450 1A2,25.1 µM (inconclusive)
same,AC50,Cytochrome P450 3A4,12.6 µM (inconclusive)
CN(C)C(=S)N=Nc1[nH]c2ccccc2c1O,AC50,[1],10.7 µM (active)
same,EC50,Protein RecA,6.07 µM (active)
COc1cccc(-c2[nH]nc3c2C(c2ccsc2)C(C#N)=C(N)O3)c1 (configuration not stated),AC50,[1],2 µM (active)
same,EC50,Protein RecA,0.52 µM (active)
COc1cccc(NC(=O)NCCC2=CCCCC2)c1,EC50,[2],51 µM (active)
same,EC50,H4,0.324 µM (active)
O=C(CSc1nnc(Cc2ccccc2)o1)Nc1cccc(F)c1,AC50,[1],71.3 µM (active)
same,EC50,Protein RecA,86.1 µM (active)
O=C(NCCCN1CCCCCC1)[C@@H](c1ccccc1)C1CCCCC1,AC50,Cytochrome P450 1A2,31.6 µM (inconclusive)
Cc1nn2c(NCC(C)C)c3c(nc2c1-c1ccccc1)CCC3,AC50,Cytochrome P450 3A4,10 µM (inconclusive)
same,AC50,Cytochrome P450 2C9,0.708 µM (inconclusive)
CS(=O)(=O)C1=NSC2=NC(=O)/C(=C\c3ccc(OC(=O)c4ccco4)cc3)C(=N)N21,AC50,[1],> 120 µM (inactive)
same,EC50,Protein RecA,16 µM (active)
CCOc1ccc(N2CC(C(=O)NCc3cccc(C)c3)CC2=O)cc1 (configuration not stated),AC50,Cytochrome P450 1A2,14.1 µM (inconclusive)
CCCCNC(=O)C(=O)c1ccccc1NC(C)=O,AC50,Cytochrome P450 2C19,22.4 µM (inconclusive)
same,AC50,Cytochrome P450 1A2,39.8 µM (inconclusive)
CC(C)On1c(SC(C)C)nc2ccccc2c1=O,AC50,Cytochrome P450 2C19,28.2 µM (inconclusive)
same,AC50,Cytochrome P450 2C9,31.6 µM (inconclusive)
COc1ccc(S(=O)(=O)N(CC(=O)N2CCCC2)Cc2ccccc2)cc1,AC50,Cytochrome P450 2C9,1 µM (inconclusive)
CCOC(=O)CSc1nnc(Cc2ccccc2)n1-c1cccc(Cl)c1,AC50,Cytochrome P450 2D6,0.0891 µM (inconclusive)
same,AC50,Cytochrome P450 1A2,25.1 µM (inconclusive)
same,AC50,Cytochrome P450 2C9,39.8 µM (inconclusive)
Cc1cc(C)c2c(-n3cccc3)[nH]nc2n1,AC50,Cytochrome P450 2C9,6.31 µM (inconclusive)
O=C(CN(c1cccc(Br)c1)S(=O)(=O)c1ccccc1)N/N=C/c1cc([N+](=O)[O-])ccc1O,EC50,[3],0.364 µM (active)
same,EC50,Streptococcus,0.587 µM (active)
same,AC50,[1],> 380 µM (inactive)
same,EC50,Protein RecA,> 380 µM (inactive)
O=[N+]([O-])c1ccc(/C=N/Nc2cc(Cl)nc(-c3ccccc3)n2)cc1,AC50,Cytochrome P450 2C9,0.00562 µM (inconclusive)
C/C(=N\Nc1ccc(Cl)cc1)c1c(O)cc(C)oc1=O,EC50,[4],29.4 µM (active)
c1ccc(C[C@@H](c2ccccc2)N2CCCCC2)cc1,AC50,Cytochrome P450 2C19,7.94 µM (inconclusive)
same,AC50,Cytochrome P450 1A2,15.8 µM (inconclusive)
same,AC50,Cytochrome P450 3A4,31.6 µM (inconclusive)
